Experimental data published in patent US20110263539A1, “SHIP 1 MODULATOR COMPOUNDS” (THE UNIVERSITY OF BRITISH COLUMBIA, priority 2006, published 2011).

Columns and labels:
SHIP enzyme = assay: In vitro SHIP enzyme assay (Assay 1); type: biochemical; details: 100 μM inositol-1,3,4,5-tetrakisphosphate, Malachite Green; also: key: a ‘+’ indicates a positive result for desired activity; a ‘−’ indicates a negative result for desired activity
Procedure: Assay 1) In vitro testing in a SHIP enzyme assay. Test compounds were dissolved in a suitable solvent (e.g. EtOH, DMSO and others) and diluted into aqueous buffer (20 mM Tris HCl, pH 7.5 and 10 mM MgCl2). SHIP enzyme assays were performed in 96-well microtitre plates with 10 ng of enzyme/well in a total volume of 25 μL of 20 mM Tris HCl, pH 7.5 and 10 mM MgCl2. SHIP enzyme was incubated with test extracts (provided in solvent) or vehicle for 15 min at 23° C. before the addition of 100 μM inositol-1,3,4,5-tetrakisphosphate (Echelon Biosciences Inc, Salt Lake City, Utah). After 20 min at 37° C. and the amount of inorganic phosphate released assessed by the addition of Malachite Green reagent and absorbance measurement at 650 nm.
For in vitro testing in the SHIP enzyme assay, AQX-016A and Compound 100 were dissolved in EtOH and diluted into aqueous buffer (20 mM Tris HCl, pH 7.5 and 10 mM MgCl2). The actual concentration of drug in solution was determined by optical density measurement at 280 nm (λmax for both compounds) after high speed centrifugation at 14 000×g for 30 min to remove precipitated drug. For testing on cells, compounds were formulated in the carrier cyclodextrin (Cyclodex Technologies, High Springs, Fla.) at 6 mM (2 mg/mL). For oral administration to animals, compounds were dissolved in 100% cremophore EL (Sigma-Aldrich Canada, Oakville, Ontario) at 150 mM (50 mg/mL) prior to dilution to 6 mM in phosphate buffer saline. However, while these compounds caged in cyclodextrin or formulated in cremophore EL micelles were very soluble in aqueous solution, they could not be used in the SHIP enzyme assays because of interference from both cyclodextrin and cremophore EL.
N-terminal His6 tagged SHIP enzyme was expressed in mammalian 293T cells by transient transfection with pME18S-His-SHIP plasmid and purified to >95% homogeneity by Ni-chelating bead chromatography (Qiagen, Mississauga, Ontario). Recombinant SHIP C2 domain (amino acid residues 725 to 863) was expressed in E. coli transformed with a pET28C expression vector constructed as described below. Recombinant protein purified from the cell lysates by Nichelating bead chromatography was >95% pure.
In vitro SHIP enzyme assay. SHIP enzyme assays were performed in 96-well microtitre plates with 10 ng of enzyme/well in a total volume of 25 μL of 20 mM Tris HCl, pH 7.5 and 10 Mm MgCl2. SHIP enzyme was incubated with test extracts (provided in DMSO) or vehicle for 15 min at 23° C. before the addition of 100 μM inositol-1,3,4,5-tetrakisphosphate (Echelon Biosciences Inc, Salt Lake City, Utah). After 20 min at 37° C. and the amount of inorganic phosphate released assessed by the addition of Malachite Green reagent and absorbance measurement at 650 nm. SHIP2 enzyme was purchased from Echelon Biosciences (Salt Lake City, Utah) and an equivalent amount of inositol phosphatase activity was used in the in vitro enzyme assay. Enzyme data are expressed as the mean of triplicates +/−SEM. Experiments were performed at least 3 times. (FIGS. 7A and 7B).

J774.1a macrophage cells [1] = assay: Macrophage TNF-α NO assay (Assay 3); type: cell-based; details: 10 μg/ml test compound, LPS, 24 hr, Griess reagent; also: key: a ‘+’ indicates a positive result for desired activity; a ‘−’ indicates a negative result for desired activity
Procedure: Assay 3) Macrophage TNF-α NO assay. J774.1a macrophage cells were treated with 10 μg/ml of test compound dissolved in solvent for 40 minutes prior to the addition of LPS. Culture supernatants were collected after 24 hr. for determination of NO concentration using the Griess reagent.

J774.1a macrophage cells [2] = assay: Macrophage TNF-α production (Assay 2); type: cell-based; details: 10 μg/mL test compound, 100 ng/mL LPS, ELISA; also: key: a ‘+’ indicates a positive result for desired activity; a ‘−’ indicates a negative result for desired activity
Procedure: Assay 2) Macrophage TNF-α production. J774.1a macrophage cells were treated with 10 μg/mL of test compound dissolved in solvent (e.g. cyclodextran) for 40 minutes prior to the addition of 100 ng/mL LPS. Culture supernatants were collected after 2 hr and 5 hr for TNF-α determination by ELISA.

MM cell lines = assay: In vitro Multiple Myeloma (MM) assay (Assay 7); type: cell-based; also: key: a ‘+’ indicates a positive result for desired activity; a ‘−’ indicates a negative result for desired activity
Procedure: Assay 7) In vitro Multiple Myeloma (MM) assay. The ability of SHIP activators to reduce tumor cell survival was assessed in MM cell lines treated with the test compound. The lines OPM1, OPM2, MM.1S and RPMI 8226 were plated at a density of 1×10^5 cells/mL in 200 μL of medium with various concentrations of the test compound, and viable cell numbers were determined on day 3 and day 5 by trypan blue exclusion. The lines RPMI 8226 and U266 were plated at a density of 1×10^6 cells/mL in 250 μL of medium with various concentrations of the test compound. At day 4, the medium of each culture was replaced by fresh medium containing the same concentration of test compound. At day 7, the viable cell number of each culture was determined by trypan blue exclusion.
MM cell lines were cultured in 96 well plates seeded with 3×10^4 cells suspended in 200 μL of medium along with various concentrations of test compound (and associated cyclodextran vehicle control), with LY294002 serving as a positive control in the experiments. After 24-48 hrs of culture, […] of [3H]-thymidine (GE Healthcare, Baie D'Urfe, Canada) being added for the final 8 hours. Cells were harvested and DNA associated radioactivity was measured via liquid scintillation counting using a Wallac Microbeta counter (Perkin-Elmer; Boston, Mass.).
The ability of SHIP activators to reduce tumor cell survival was assessed in multiple myeloma (MM) cell lines treated with Compound 100 or AQX-016A. The lines OPM1, OPM2, MM.1S and RPMI 8226 were plated at a density of 1×10^5 cells/mL in 200 μL of medium with various concentrations of Compound 100, and viable cell numbers were determined on day 3 and day 5 by trypan blue exclusion. The lines RPMI 8226 and U266 were plated at a density of 1×10^6 cells/mL in 250 μL of medium with various concentrations of AQX-016A. At day 4, the medium of each culture was replaced by fresh medium containing the same concentration of AQX-016A. At day 7, the viable cell number of each culture was determined by trypan blue exclusion. Experiments were performed in triplicate.
Proliferation (DNA synthesis) assays. Proliferation was measured by measuring incorporation of [^3H]-thymidine into cells. MM cell lines were cultured in 96 well plates seeded with 3×10^4 cells suspended in 200 μL, of medium along with various concentrations of Compound 100 or AQX-016A (and associated cyclodextran vehicle control), with LY294002 serving as a positive control in the indicated experiments. After 24-48 hrs of culture, 1 μCi of [^3H]-thymidine (GE Healthcare, Baie D'Urfe, Canada) being added for the final 8 hours. Plates were frozen, which also aided in cell lysis, to terminate the experiments. Cells were then harvested onto glass fibre filters using an automatic cell harvester (TomTech; Orange, Conn.) and DNA associated radioactivity was measured via liquid scintillation counting using a Wallac Microbeta counter (Perkin-Elmer; Boston, Mass.). Wells were set up in triplicate and data is expressed as mean+/−SEM.

Mast cells = assay: Stimulation of mast cells by FcεRI crosslinking (Assay 4); type: cell-based; details: anti-DNP IgE, DNP-HSA
Procedure: Assay 4) Stimulation of mast cells by FcåRI crosslinking. Mast cells were pre-loaded overnight in BMMC medium lacking IL-3 with 0.1 μg/ml anti-DNP IgE (SPE-7, Sigma, Oakville, Ont). For calcium flux measurements, cells were incubated with 2 μM fura 2-acetoxymethyl ester (Molecular Probes, Eugene, Oreg.) in Tyrode's buffer at 23° C. for 45 min. Cells were then washed and incubated in the presence of the test compound 30 min prior to stimulation with the indicated concentration of DNP-human serum albumin (DNP-HSA). Calcium influx was monitored by spectrofluorometry as described previously. For analysis of intracellular signaling, cells were pre-loaded with anti-DNP IgE as above, pre-treated with the test compound for 30 min at 37° C. and stimulated with 20 ng/ml DNP-HSA for 5 min. Total cell lysates were then prepared and analyzed for phospho-PKB, phospho-p38^MAPK, phospho-MAPK, Grb-2 (Cell Signalling, Mississauga, Ont) and SHIP^6 by immunoblot analysis.

SMILES	Assay Number 1: SHIP enzyme assay (SHIP enzyme)	Assay Number 3: Macrophage NO (J774.1a macrophage cells [1])	Assay Number 2: Macrophage TNF-α production (J774.1a macrophage cells [2])	Assay Number 7: In vitro Multiple Myeloma (MM) assay (MM cell lines)	Assay Number 4: Stimulation of mast cells by FcεRI crosslinking (Mast cells)
Cc1cc(O)c(O)c2c1[C@@]1(C)CCC3C(C)(C)CCC[C@]3(C)[C@H]1C2 (stereo partly drawn) [8 Epi 16A]	+				
COC(=O)c1cc(O)c(O)c2c1[C@@]1(C)CCC3C(C)(C)CCC[C@]3(C)[C@H]1C2 (some centres unmarked) [Compound 8-Epipelorol, 8-Epipelorol]	+				
COC(=O)c1cc(O)c(O)c2c1[C@]1(C)CCC3C(C)(C)CCC[C@]3(C)[C@@H]1C2 (some centres unmarked) [Compound 9-Epipelorol, 9-Epipelorol]	+				
CCc1cc(O)c(O)c2c1[C@]1(C)CCC3C(C)(C)CCC[C@]3(C)[C@H]1C2 (some centres unmarked) [Compound 18A, reference compound]	+	+	+		
Cc1cc2c(cc1O)C[C@@H]1[C@@]3(C)CCCC(C)(C)[C@@H]3CC[C@@]21C [Compound 101]		+	+	+	
CC(=O)Oc1cc(C)c2c(c1)C[C@H]1[C@@]2(C)CCC2C(C)(C)CCC[C@@]21C (some centres unmarked) [Compound 102]		+	+		
Cc1cc(OC(=O)C(N)CCCNC(=N)N)cc2c1[C@]1(C)CCC3C(C)(C)CCC[C@]3(C)[C@H]1C2 (some centres unmarked) [Compound 105]		+	+		
Cc1cc(OP(=O)(O)O)cc2c1[C@]1(C)CCC3C(C)(C)CCC[C@]3(C)[C@H]1C2 (some centres unmarked) [Compound 109]		+	−	+	
Cc1cc(OC(=O)C(CC(=O)O)NC(=O)CCC(=O)O)cc2c1[C@]1(C)CCC3C(C)(C)CCC[C@]3(C)[C@H]1C2 (some centres unmarked) [Compound 114]		+	+		
CC1(C)CCC[C@]2(C)[C@H]3Cc4cc(O)cc(O)c4[C@]3(C)CC[C@@H]12 [Compound 115]				+	
COc1cc(O)cc2c1[C@]1(C)CC[C@H]3C(C)(C)CCC[C@]3(C)[C@H]1C2 [Compound 117]		+	+	+	
COc1ccc2c(c1O)C[C@@H]1[C@@]3(C)CCCC(C)(C)[C@@H]3CC[C@@]21C [Compound 118]		+	−	+	
CC1(C)CCC[C@]2(C)[C@H]3Cc4cc(O)ccc4[C@]3(C)CC[C@@H]12 [Compound 121]		+	+	+	
Cc1cc(O)c2c(c1)C[C@@H]1[C@@]3(C)CCCC(C)(C)[C@@H]3CC[C@@]21C [Compound 122]		+	−	+	
Cc1cc(OC(=O)C(N)Cc2cnc[nH]2)cc2c1[C@]1(C)CCC3C(C)(C)CCC[C@]3(C)[C@H]1C2 (some centres unmarked) [Compound 123]		+	+		
Cc1cc(O)cc2c1[C@]1(C)CCC3C(C)(C)CCC[C@]3(C)[C@@H]1C2 (some centres unmarked) [Compound 124]		+	+	+	+
Cc1cc(O)cc2c1[C@@]1(C)CCC3C(C)(C)CCC[C@]3(C)[C@H]1C2 (some centres unmarked) [Compound 125]		+	+	+	+
COc1cc(C)c2c(c1O)C[C@@H]1[C@@]3(C)CCCC(C)(C)[C@@H]3CC[C@@]21C [Compound 129]		+	−		
CC1(C)CCC[C@@]2(C)C1CC[C@@]1(C)c3c(C(=O)O)cc(O)c(O)c3C[C@@H]12 (some centres unmarked) [Desmethylpelorol, reference compound]	+	+	+		
COC(=O)c1cc(O)c(O)c2c1[C@]1(C)CCC3C(C)(C)CCC[C@]3(C)[C@H]1C2 (some centres unmarked) [Pelorol, pelorol]	+				
